Measured values: US20250382331A1, “Carrier Peptide Fragment and Use Thereof” (TOAGOSEI CO., LTD., priority 2022, published 2025)
Primed or numbered codes have the meaning given here. FAM = 5(6)-carboxyfluorescein; FAM″ = C-terminal FAM dye

System: NSC-34 cells
Assay: Evaluation on cell membrane permeability by flow cytometry
Type: cell-based, mouse
Conditions: 10 μM construct (additive), 0.5% DMSO, 20 hours incubation, flow cytometer FL2
Protocol: As the eukaryotic cells, NSC-34 cells (mouse motor neuron-like hybrid cell line) were used and the cell membrane permeability of the constructs 1 to 4 was analyzed. In Examples 1 to 4, the prepared samples 1 to 4 were used, respectively, and in Example 5, a FAM solution was used.
The NSC-34 cells were cultured in 10% fetal bovine serum (FBS)-containing Dulbecco's modified Eagle's medium (DMEM (Cat No. 044-29765, manufactured by FUJIFILM Wako Pure Chemical Corporation)), which is a normal culture medium.
The NSC-34 cells that adhered to a culture plate were cleaned with PBS and then, a 0.25%-trypsin/EDTA solution was added thereto, and incubation was performed for three minutes at 37° C. After the incubation, the aforementioned 10% FBS-containing DMEM was added to deactivate trypsin and then, five-minute centrifugal separation was performed at 150×g to precipitate the cells. After the supernatant generated by the centrifugal separation was removed, the 10% FBS-containing DMEM was added to the precipitate (cell pellet) to prepare a cell suspension of about 2×10^5 cells/mL. The cell suspension was added by 1 mL to a well of a commercially available six-hole (well) plate (manufactured by AGC TECHNO GLASS Co., Ltd.) so as to seed the cell (about 2×10^5 cells/well). In addition, the 2 mM sample solution 1 was diluted with the 10% FBS-containing DMEM to prepare the sample solution 1 in which the concentration of the sample 1 was 20 μM. Then, 1 mL of the 20 μM sample solution 1 was added to the well (that is, so that the concentration of the sample 1 became 10 μM and the DMSO concentration became 0.5% in the culture solution in the well). After that, the cell was incubated for 20 hours at 37° C. under a 5% CO2 condition.
After the 20-hour incubation, the culture supernatant was removed from the well and the cells in the well were cleaned twice with 1 mL of PBS. Next, 200 μL of the 0.25% trypsin/EDTA solution was added to the well and the incubation was performed for three minutes at 37° C. After the incubation, 400 μL of the 10% FBS-containing DMEM was added to the well to deactivate the trypsin. Subsequently, the cell suspension in the well was transferred to a tube and the cells were collected. After that, 600 μL of PBS was added further to the well to clean the well. Then, PBS in the well was transferred to the tube, so that the cells remaining in the well were collected in the tube. This tube was subjected to five-minute centrifugal separation at 4° C. under a condition of 210×g. After the centrifugal separation, the supernatant was removed and the precipitate (cell pellet) was suspended (cleaned) with 1 mL of PBS, which was followed by the centrifugal separation under the same condition as that described above. After this operation was repeated twice, the supernatant was removed and thus, the cells (cell pellet) cultured in a culture medium containing the sample 1 were obtained.
Regarding the obtained cells (cell pellet), the cell membrane permeability of the sample 1 was analyzed using a flow cytometer. […]
Using the aforementioned flow cytometer, gating based on forward scatter (FSC) and side scatter (SSC) was performed to set a gate about a cell group to be analyzed, and the fluorescence intensity was measured about the cell group in this gate. […] The fluorescence intensity was measured using a fluorescence detector FL2 of the flow cytometer (optimum detection wavelength around 543 nm) capable of detecting the fluorescence wavelength of FAM. […]

Which “MFI (median fluorescence intensity)” value does the source give for “Ac-KKRTLRKSSNRKKR-FAM (Ac-KKRTLRKSSNRKKR-{FAM″}) [Example 2]” here?
The value was 12.9.

With “5(6)-carboxyfluorescein [Example 5, reference compound]” as the substance, how does the “MFI (median fluorescence intensity)” value read?
Its value is 8.15.

With “Ac-KKRTLRKNSNRKKR-FAM (Ac-KKRTLRKNSNRKKR-{FAM}) [Example 4]” as the substance, how does the “MFI (median fluorescence intensity)” value read?
Its value is 16.7.

“Ac-KKRTLRKSNSRKKR-FAM (Ac-KKRTLRKSNSRKKR-{FAM″}) [Example 1]” was tested. Which “MFI (median fluorescence intensity)” value did it give?
Its value is 11.2.

Which “MFI (median fluorescence intensity)” value does the source give for “Ac-KKRTLRKSNNRKKR-FAM (Ac-KKRTLRKSNNRKKR-{FAM}) [Example 3]” here?
The value was 13.6.
